According to US20250296953A1, “3,4-THIAZOLO-STEROIDS AND METHODS OF MAKING AND USING THE SAME” (Arkansas State University - Jonesboro, priority 2018, published 2025):
Read-outs that look alike come from different tables or passages of the source.

Columns and labels:
SF-539 = assay: NCI 60 one dose screen; format: cell-based, human; details: one dose; CNS Cancer; SF-539
glioblastoma (SF-295) = assay: NCI 60 five dose screen
[1] = test system: 60 different human tumor cell lines; assay: NCI Development Therapeutics Program 60 cell line screen, one dose; format: cell-based
[2] = test system: 60 different human tumor cell lines; assay: cells

C[C@]12CC[C@H]3[C@@H](CC=C4c5sc(Nc6ccccc6)nc5CC[C@@]43C)[C@@H]1CC[C@@H]2O [IIIa.10, (1S,2R,13R,14S,17S,18S)-7-anilino-2,18-dimethyl-8-thia-6-azapentacyclo[11.7.0.02,10.05,9.014,18]icosa-5(9),6,10-trien-17-ol]
Growth Percent (SF-539): −34.31% | GI50 (glioblastoma (SF-295); Homo sapiens, SF-295): 1.06 µM | CC50 (glioblastoma (SF-295); Homo sapiens, SF-295, read-out: LC50): 8.38 µM | TGI (glioblastoma (SF-295); SF-295 (CNS Cancer), five dose): 2.98E−6 | Growth Percent ([1]; Breast Cancer, BT-549): 19.16% | Growth Percent ([1]; Breast Cancer, HS 578T): 3.65% | Growth Percent ([1]; Breast Cancer, MCF7): 29.18% | Growth Percent ([1]; Breast Cancer, MDA-MB-231/ATCC): 35.75% | Growth Percent ([1]; Breast Cancer, MDA-MB-468): −1.00% | Growth Percent ([1]; Breast Cancer, T-47D): 16.35% | Growth Percent ([1]; CNS Cancer, SF-268): 9.68% | Growth Percent ([1]; CNS Cancer, SNB-19): 26.54% | Growth Percent ([1]; CNS Cancer, SNB-75): −5.43% | Growth Percent ([1]; CNS Cancer, U251): −30.05% | Growth Percent ([1]; Colon Cancer, COLO 205): 57.13% | Growth Percent ([1]; Colon Cancer, HCC-2998): 98.16% | Growth Percent ([1]; Colon Cancer, HCT-116): −81.48% | Growth Percent ([1]; Colon Cancer, HT29): −38.50% | Growth Percent ([1]; Colon Cancer, KM12): 15.64% | Growth Percent ([1]; Colon Cancer, SW-620): −19.44% | Growth Percent ([1]; Leukemia, CCRF-CEM): 0.74% | Growth Percent ([1]; Leukemia, HL-60(TB)): 15.69% | Growth Percent ([1]; Leukemia, K-562): 4.96% | Growth Percent ([1]; Leukemia, MOLT-4): 6.79% | Growth Percent ([1]; Leukemia, RPMI-8226): −32.33% | Growth Percent ([1]; Leukemia, SR): 8.06% | Growth Percent ([1]; Melanoma, LOX IMVI): −81.48% | Growth Percent ([1]; Melanoma, M14): 53.44% | Growth Percent ([1]; Melanoma, MALME-3M): 71.16% | Growth Percent ([1]; Melanoma, MDA-MB-435): 3.47% | Growth Percent ([1]; Melanoma, SK-MEL-2): 51.68% | Growth Percent ([1]; Melanoma, SK-MEL-5): 34.54% | Growth Percent ([1]; Melanoma, SK-MEL-28): 27.28% | Growth Percent ([1]; Melanoma, UACC-62): 39.84% | Growth Percent ([1]; Melanoma, UACC-257): 69.33% | Growth Percent ([1]; Non-small Cell Lung Cancer, A549/ATCC): 57.08% | Growth Percent ([1]; Non-small Cell Lung Cancer, EKVX): 73.21% | Growth Percent ([1]; Non-small Cell Lung Cancer, HOP-62): 34.18% | Growth Percent ([1]; Non-small Cell Lung Cancer, HOP-92): 103.92% | Growth Percent ([1]; Non-small Cell Lung Cancer, NCI-H23): 67.34% | Growth Percent ([1]; Non-small Cell Lung Cancer, NCI-H226): 63.92% | Growth Percent ([1]; Non-small Cell Lung Cancer, NCI-H322M): 78.38% | Growth Percent ([1]; Non-small Cell Lung Cancer, NCI-H460): 6.06% | Growth Percent ([1]; Ovarian Cancer, IGROV1): 11.15% | Growth Percent ([1]; Ovarian Cancer, NCI/ADR-RES): 36.29% | Growth Percent ([1]; Ovarian Cancer, OVCAR-3): −31.62% | Growth Percent ([1]; Ovarian Cancer, OVCAR-4): 64.10% | Growth Percent ([1]; Ovarian Cancer, OVCAR-5): 92.21% | Growth Percent ([1]; Ovarian Cancer, OVCAR-8): −8.95% | Growth Percent ([1]; Ovarian Cancer, SK-OV-3): 89.65% | Growth Percent ([1]; Prostate Cancer, DU-145): 14.25% | Growth Percent ([1]; Prostate Cancer, PC-3): 39.21% | Growth Percent ([1]; Renal Cancer, 786-0): −49.68% | Growth Percent ([1]; Renal Cancer, ACHN): 36.78% | Growth Percent ([1]; Renal Cancer, CAKI-1): 49.02% | Growth Percent ([1]; Renal Cancer, RXF 393): −32.33% | Growth Percent ([1]; Renal Cancer, SN12C): 10.11% | Growth Percent ([1]; Renal Cancer, TK-10): 65.01% | Growth Percent ([1]; Renal Cancer, UO-31): 26.06% | GI50 ([2]; 60 cell): 2.37 µM | CC50 ([2]; 60 cell, read-out: LC50): 38.4 µM | GI50 ([2]; 786-0): 1.22 µM | CC50 ([2]; 786-0, read-out: LC50): 8.87 µM | GI50 ([2]; A498): 2.16 µM | CC50 ([2]; A498, read-out: LC50): 20.7 µM | GI50 ([2]; A549): 2.41 µM | CC50 ([2]; A549, read-out: LC50): 46.2 µM | GI50 ([2]; ACHN): 1.71 µM | CC50 ([2]; ACHN, read-out: LC50): 6.19 µM | GI50 ([2]; BT-549): 1.38 µM | CC50 ([2]; BT-549, read-out: LC50): 32.6 µM | GI50 ([2]; CAKI-1): 2.32 µM | CC50 ([2]; CAKI-1, read-out: LC50): 19.2 µM | GI50 ([2]; CCRF-CEM): 1.6 µM | CC50 ([2]; CCRF-CEM, read-out: LC50): > 100 µM | GI50 ([2]; COLO 205): 2.45 µM | CC50 ([2]; COLO 205, read-out: LC50): 50.8 µM | GI50 ([2]; DU-145): 1.7 µM | CC50 ([2]; DU-145, read-out: LC50): 7.68 µM | GI50 ([2]; EKVX): 2.75 µM | CC50 ([2]; EKVX, read-out: LC50): 63.8 µM | GI50 ([2]; HCC 2998): 1.97 µM | CC50 ([2]; HCC 2998, read-out: LC50): 6.42 µM | GI50 ([2]; HCT-15): 1.6 µM | CC50 ([2]; HCT-15, read-out: LC50): 30.6 µM | GI50 ([2]; HCT-116): 1.51 µM | CC50 ([2]; HCT-116, read-out: LC50): 6.01 µM | GI50 ([2]; HL-60): 2.02 µM | CC50 ([2]; HL-60, read-out: LC50): > 100 µM | GI50 ([2]; HOP-62): 2.47 µM | CC50 ([2]; HOP-62, read-out: LC50): > 100 µM | GI50 ([2]; HOP-92): 2.84 µM | CC50 ([2]; HOP-92, read-out: LC50): 27.4 µM | GI50 ([2]; HT-29): 2.13 µM | GI50 ([2]; Hs-578T): 2.16 µM | CC50 ([2]; Hs-578T, read-out: LC50): > 100 µM | GI50 ([2]; IGROV-1): 2.78 µM | CC50 ([2]; IGROV-1, read-out: LC50): > 100 µM | GI50 ([2]; K562): 2.45 µM | CC50 ([2]; K562, read-out: LC50): > 100 µM | GI50 ([2]; KM12): 1.68 µM | CC50 ([2]; KM12, read-out: LC50): 5.77 µM | GI50 ([2]; LOX IMVI): 1.33 µM | CC50 ([2]; LOX IMVI, read-out: LC50): 5.78 µM | GI50 ([2]; M14): 1.84 µM | CC50 ([2]; M14, read-out: LC50): 9.9 µM | GI50 ([2]; MCF7): 1.8 µM | CC50 ([2]; MCF7, read-out: LC50): > 100 µM | GI50 ([2]; MDA-MB-231): 1.99 µM | CC50 ([2]; MDA-MB-231, read-out: LC50): 12.8 µM | GI50 ([2]; MDA-MB-435): 2.25 µM | CC50 ([2]; MDA-MB-435, read-out: LC50): 29.7 µM | GI50 ([2]; MDA-MB-468): 1.72 µM | CC50 ([2]; MDA-MB-468, read-out: LC50): 6.66 µM | GI50 ([2]; MOLT-4): 1.87 µM | CC50 ([2]; MOLT-4, read-out: LC50): > 100 µM | GI50 ([2]; Malme-3M): 2.19 µM | CC50 ([2]; Malme-3M, read-out: LC50): 21.9 µM | GI50 ([2]; NCI-H23): 2.03 µM | CC50 ([2]; NCI-H23, read-out: LC50): 23.7 µM | GI50 ([2]; NCI-H226): 2.4 µM | CC50 ([2]; NCI-H226, read-out: LC50): > 100 µM | GI50 ([2]; NCI-H322M): 2.88 µM | CC50 ([2]; NCI-H322M, read-out: LC50): 35.2 µM | GI50 ([2]; NCI-H460): 1.95 µM | CC50 ([2]; NCI-H460, read-out: LC50): 8.37 µM | GI50 ([2]; NCI-H522): 1.9 µM | CC50 ([2]; NCI-H522, read-out: LC50): 14.3 µM | GI50 ([2]; NCI/ADR-RES): 3.39 µM | CC50 ([2]; NCI/ADR-RES, read-out: LC50): > 100 µM | GI50 ([2]; OVCAR-3): 1.28 µM | CC50 ([2]; OVCAR-3, read-out: LC50): 5.37 µM | GI50 ([2]; OVCAR-4): 3.13 µM | CC50 ([2]; OVCAR-4, read-out: LC50): 56.8 µM | GI50 ([2]; OVCAR-5): 2.68 µM | CC50 ([2]; OVCAR-5, read-out: LC50): 34 µM | GI50 ([2]; OVCAR-8): 3.43 µM | CC50 ([2]; OVCAR-8, read-out: LC50): 93.7 µM | GI50 ([2]; RXF 393): 0.798 µM | CC50 ([2]; RXF 393, read-out: LC50): 5.81 µM | GI50 ([2]; SF-268): 1.66 µM | CC50 ([2]; SF-268, read-out: LC50): 6.62 µM | GI50 ([2]; SK-MEL-2): 2.51 µM | CC50 ([2]; SK-MEL-2, read-out: LC50): 22.2 µM | GI50 ([2]; SK-MEL-5): 1.82 µM | CC50 ([2]; SK-MEL-5, read-out: LC50): 6.4 µM | GI50 ([2]; SK-MEL-28): 1.68 µM | CC50 ([2]; SK-MEL-28, read-out: LC50): 9.49 µM | GI50 ([2]; SK-OV-3): 5.16 µM | CC50 ([2]; SK-OV-3, read-out: LC50): 51.2 µM | GI50 ([2]; SN12C): 1.65 µM | CC50 ([2]; SN12C, read-out: LC50): 6.53 µM | GI50 ([2]; SNB-19): 1.86 µM | CC50 ([2]; SNB-19, read-out: LC50): 7.65 µM | GI50 ([2]; SNB-75): 1.49 µM | CC50 ([2]; SNB-75, read-out: LC50): 6.24 µM | GI50 ([2]; SW-620): 2.27 µM | CC50 ([2]; SW-620, read-out: LC50): 23.2 µM | GI50 ([2]; T47D): 2.41 µM | CC50 ([2]; T47D, read-out: LC50): > 100 µM | GI50 ([2]; TK-10): 2.91 µM | CC50 ([2]; TK-10, read-out: LC50): 23 µM | GI50 ([2]; U-251): 1.36 µM | CC50 ([2]; U-251, read-out: LC50): 5.7 µM | GI50 ([2]; UACC-62): 1.83 µM | CC50 ([2]; UACC-62, read-out: LC50): 8.55 µM | GI50 ([2]; UACC-257): 2.54 µM | CC50 ([2]; UACC-257, read-out: LC50): 30.5 µM | GI50 ([2]; UO-31): 1.67 µM | CC50 ([2]; UO-31, read-out: LC50): 5.56 µM
